From patent US4894340A, “Microbial sulfhydryl oxidase and method” (priority 1987, dated 1990)
Read-outs that look alike come from different tables or passages of the source.

What was measured:
[1] = test system: A. niger sulfhydryl oxidase; assay: Polarographic O2 depletion assay of sulfhydryl oxidase with thiol compounds and substrates of other oxidases; format: biochemical, Aspergillus niger; settings: for Activity toward substrates of other known oxidases: test compound 10 mM in 40 mM sodium acetate at pH 5.5; for kcat (app)/Km (app) (head is drawing 1) / kcat (app) / Km: purified enzyme, polarographic assay; for kcat (app) / Km: double reciprocal plot; for Km: read-out: Km (app)
Procedure: Two assays have been employed to determine SHX activity. The first assay is based on the depletion of O2 from assay mixtures containing thiol compounds; oxygen depletion is measured polarographically by oxygen electrode techniques. One unit of SHX is defined as that amount of enzyme which would utilize or consume 1 umol of O2 per minute under the conditions of the assay.
Rates of O2 depletion by the purified enzyme were measured at selected concentrations of GSH, cysteine, dithiothreitol and 2-mercapto-ethanol. […] Kinetic constants were calculated from the double reciprocal plot by linear regression fitting of the data points.
The enzyme was tested for activity toward substrates of other known oxidases, including D-glucose, D-fructose, L-lysine, D-lysine, benzylamine, xanthine, putrescine, catechol, nicotinamide adenine dinucleotide (reduced) ("NADH") and nicotinamide adenine dinucleotide phosphate (reduced) ("NADPH").
In a typical assay, 2.9 mL of a mixture consisting of a thiol compound in an appropriate buffer was equilibrated with stirring to 25° C. After the vial was sealed with the electrode, a volume of 0.1 mL of enzyme solution was injected into the assay mixture. […] One unit of sulfhydryl oxidase was defined as that amount of enzyme which would deplete 1 umole of O2 per minute under the conditions of the assay. Unless otherwise indicated, the assay mixture contained 8 mM GSH in 40 mM acetate buffer, pH 5.5, at 25° C.

[2] = test system: sulfhydryl apooxidase; assay: Reactivation of sulfhydryl apooxidase by resolved flavins or standards; format: biochemical, Aspergillus niger; settings: for Activity: apooxidase after 14 hours incubation at 0° C. with resolved flavins or standards
From the text: At […], FAD is weakly fluorescent owing to quenching by its adenine moiety. FMN and other nonadenylated flavins, on the other hand, fluoresce strongly under both conditions of pH (Bessey et al., 1949); Cerletti and Siliprandi, 1958). Thus the ratio of fluorescence at basic pH to that at acidic pH distinguishes adenylated from nonadenylated flavins. […] When the isolated flavins were recombined with sulfhydryl apooxidase, only the product of treatment by boiling was capable of restoring activity to the enzyme.
Determination of sulfhydryl oxidase activity was based upon depletion of O2 from assay mixtures containing thiol compounds, as measured with a Yellow Springs Instruments oxygen monitor (model 500) equipped with a polarographic Clark-type electrodes. In a typical assay, 2.9 mL of a mixture consisting of a thiol compound in an appropriate buffer was equilibrated with stirring to 25° C. After the vial was sealed with the electrode, a volume of 0.1 mL of enzyme solution was injected into the assay mixture. The rate of oxygen depletion was constant during the first 30 seconds of the assay; thus, the initial rate of O2 depletion was taken to be sulfhydryl oxidase activity under the prevailing conditions. One unit of sulfhydryl oxidase was defined as that amount of enzyme which would deplete 1 umole of O2 per minute under the conditions of the assay. Unless otherwise indicated, the assay mixture contained 8 mM GSH in 40 mM acetate buffer, pH 5.5, at 25° C.
In reactivation experiments, freshly prepared apoenzyme was combined with flavin solution and 0.1M sodium phosphate buffer, pH 7.0, in the volume proportions 1:1:2. This mixture was incubated for 14 to 16 hours at 0° C. After the incubation period, the enzyme was separated from excess free flavin by passage through a Pharmacia PD-10 column equilibrated and eluted with 40 mM acetate buffer, pH 5.5.
The flavin component was also extracted from the enzyme by two other methods. Dialyzed sulfhydryl oxidase was boiled for 5 minutes with protection from light and cooled quickly by immersion in ice water. […]

[3] = test system: A. niger sulfhydryl oxidase; assay: NAD/NADP as electron acceptors, absorbance at 340 nm; format: biochemical, Aspergillus niger; settings: in the presence of sulfhydryl oxidase and 4 mM GSH
[4] = test system: A. niger sulfhydryl oxidase; assay: Sulfhydryl oxidase activity in presence of chelating agents; format: biochemical, Aspergillus niger; settings: 1 mM chelating agent in 0.05M phosphate buffer, pH 7.0, even after overnight incubation
From the text: Since flavin oxidases containing essential metal ions are known to exist, sulfhydryl oxidase was examined for changes in activity upon treatment with the chelating agents.

[5] = biological target: A. niger sulfhydryl oxidase; assay: Spectral titration with sodium sulfite (flavin-sulfite complex); format: binding, Aspergillus niger; settings: read-out: Dissociation constant Kd of flavin-sulfite complex
Procedure: FIG. 3: Absorption spectra of purified sulfhydryl oxidase after reaction with sodium sulfite at pH 6, showing bleaching of the visible bond of SHX spectrum. Each spectrum was recorded 10 minutes after the addition of a small aliquot of sodium sulfite to a cuvette containing 1.8 mg/mL SHX in 50 mM sodium phosphate. Sulfite concentrations after each addition were 0 mM(1), 0.99 mM(2), 2.44 mM(3) and 152 mM(4).
Additional spectral analysis confirms that the SHX of the present invention is a flavoprotein. Most flavin oxidases, but not flavin dehydrogenases, react with sodium sulfite to form a bleached flavin-sulfite complex (Massey et al., 1969). The spectral change incurred by incubation of sulfhydryl oxidase with sodium sulfite at varying concentrations is show in FIG. 3. The dissociation constant Kd =[SHX][SO2 ]/[SHX-SO2 ]for the sulfhydryl oxidase flavin-sulfite complex was calculated from the first few spectra under the assumption that spectrum 4 in FIG. 3 represented full conversion of the enzyme to the sulfite complex, and that the initial excess of sulfite was so large that its concentration was essentially unchanged at equilibrium. The first assumption was justified by the fact that spectrum 4 (152.8 mM sulfite) was identical with the spectrum recorded when the sulfite concentration was just 42.8 mM (not shown).

[6] = biological target: T1, flavin sulfhydryl oxidase from rat epididymal fluid (Rattus norvegicus, UniProt Q6IUU3); settings: concentrations as high as 0.1M; cited from earlier work
T1 construct: flavin sulfhydryl oxidase from rat epididymal fluid; host or cells: rat epididymal fluid as printed
T1 sequence (Q6IUU3 33-750): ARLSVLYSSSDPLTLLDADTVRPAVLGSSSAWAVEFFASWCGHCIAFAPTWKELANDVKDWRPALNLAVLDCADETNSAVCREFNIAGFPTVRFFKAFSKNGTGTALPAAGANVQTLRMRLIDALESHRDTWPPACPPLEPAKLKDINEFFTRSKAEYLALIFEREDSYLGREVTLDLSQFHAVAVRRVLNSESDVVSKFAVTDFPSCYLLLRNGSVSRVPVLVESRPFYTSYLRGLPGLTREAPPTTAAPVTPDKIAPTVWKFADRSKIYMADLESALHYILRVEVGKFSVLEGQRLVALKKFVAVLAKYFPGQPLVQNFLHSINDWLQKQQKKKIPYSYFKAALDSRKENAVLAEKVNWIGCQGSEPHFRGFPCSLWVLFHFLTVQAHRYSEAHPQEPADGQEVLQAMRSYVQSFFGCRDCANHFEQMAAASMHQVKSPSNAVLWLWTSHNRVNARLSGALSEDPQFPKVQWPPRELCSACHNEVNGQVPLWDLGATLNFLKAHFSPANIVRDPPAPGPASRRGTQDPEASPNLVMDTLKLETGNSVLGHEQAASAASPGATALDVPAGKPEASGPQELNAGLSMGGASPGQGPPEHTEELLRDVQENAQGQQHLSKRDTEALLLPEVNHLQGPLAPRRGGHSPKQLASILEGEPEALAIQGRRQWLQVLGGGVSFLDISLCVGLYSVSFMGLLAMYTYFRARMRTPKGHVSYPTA

## NCc1ccccc1 [benzylamine]
[1]
  Activity toward substrates of other known oxidases: failed to stimulate

## Cc1cc2nc3c(=O)[nH]c(=O)nc-3n(C[C@H](O)[C@H](O)[C@H](O)COP(=O)(O)O)c2cc1C [Authentic FMN, flavin mononucleotide]
[2]
  Activity: 0.0 units/mL
[2]; excess FMN, pH 3 to 9, various buffer salts
  Restoration of apooxidase activity toward GSH: did not result in any detectable restoration of activity

## N[C@@H](CS)C(=O)O [Cysteine]
[1]
  kcat (app)/Km (app) (head is drawing 1): 230 min^-1 M^- 1
  kcat (app): 166.2 s⁻¹
  Km: 43 mM

## OCCS [2-Mercaptoethanol]
[1]
  kcat (app)/Km (app) (head is drawing 1): 26 min^-1 M^- 1
  kcat (app): 145.2 s⁻¹

## NC(=O)C1=CN([C@@H]2O[C@H](COP(=O)(O)OP(=O)(O)OC[C@H]3O[C@@H](n4cnc5c(N)ncnc54)[C@H](OP(=O)(O)O)[C@@H]3O)[C@@H](O)[C@H]2O)C=CC1 [NADPH, nicotinamide adenine dinucleotide phosphate (reduced)]
[1]
  Activity toward substrates of other known oxidases: failed to stimulate

## NCCCC[C@H](N)C(=O)O [L-lysine]
[1]
  Activity toward substrates of other known oxidases: failed to stimulate

## NCCCC[C@@H](N)C(=O)O [D-lysine]
[1]
  Activity toward substrates of other known oxidases: failed to stimulate

## NC(=O)c1ccc[n+]([C@@H]2O[C@H](COP(=O)([O-])OP(=O)(O)OC[C@H]3O[C@@H](n4cnc5c(N)ncnc54)[C@H](OP(=O)(O)O)[C@@H]3O)[C@@H](O)[C@H]2O)c1 [NADP]
[3]
  Electron acceptor, increase in absorbance at 340 nm: did not act as electron acceptors

## c1cnc2c(c1)ccc1cccnc12 [o-phenanthroline]
[4]
  Change in sulfhydryl oxidase activity: No activity decreases

## O[C@H](CS)[C@H](O)CS (racemic) [Dithiothreitol]
[1]
  kcat (app)/Km (app) (head is drawing 1): 110 min^-1 M^- 1
  kcat (app): 119 s⁻¹
  Km: 66 mM

## Oc1cccc2cccnc12 [8-hydroxyquinoline]
[4]
  Change in sulfhydryl oxidase activity: No activity decreases

## Oc1ccccc1O [catechol]
[1]
  Activity toward substrates of other known oxidases: failed to stimulate

## NC(=O)c1ccc[n+]([C@@H]2O[C@H](COP(=O)([O-])OP(=O)(O)OC[C@H]3O[C@@H](n4cnc5c(N)ncnc54)[C@H](O)[C@@H]3O)[C@@H](O)[C@H]2O)c1 [NAD]
[3]
  Electron acceptor, increase in absorbance at 340 nm: did not act as electron acceptors

## O=c1[nH]c(=O)c2[nH]cnc2[nH]1 [xanthine]
[1]
  Activity toward substrates of other known oxidases: failed to stimulate

## N[C@@H](CCC(=O)N[C@@H](CS)C(=O)NCC(=O)O)C(=O)O [Glutathione]
[1]
  kcat (app)/Km (app) (head is drawing 1): 26,000 min^-1 M^- 1
  kcat (app): 131.2 s⁻¹
  Km: 0.3 mM

## O=S([O-])[O-].[Na+].[Na+] [sodium sulfite]
[5]; from spectrum 1 of FIG. 3, pH 6, 50 mM sodium phosphate
  Kd: 3.04 mM
[5]; from spectrum 2 of FIG. 3, pH 6, 50 mM sodium phosphate
  Kd: 2.95 mM
[6]
  Reaction with sulfite (changes in visible spectrum): failed to react

## Cc1cc2nc3c(=O)[nH]c(=O)nc-3n(C[C@H](O)[C@H](O)[C@H](O)COP(=O)(O)OP(=O)(O)OC[C@H]3O[C@@H](n4cnc5c(N)ncnc54)[C@H](O)[C@@H]3O)c2cc1C [Authentic FAD, flavin adenine dinucleotide]
[2]
  Activity: 0.58 units/mL

## OC[C@H]1OC(O)[C@H](O)[C@@H](O)[C@@H]1O (stereo partly drawn) [D-glucose]
[1]
  Activity toward substrates of other known oxidases: failed to stimulate

## NC(=O)C1=CN([C@@H]2O[C@H](COP(=O)(O)OP(=O)(O)OC[C@H]3O[C@@H](n4cnc5c(N)ncnc54)[C@H](O)[C@@H]3O)[C@@H](O)[C@H]2O)C=CC1 [NADH, nicotinamide adenine dinucleotide (reduced)]
[1]
  Activity toward substrates of other known oxidases: failed to stimulate

## O=C(CO)[C@@H](O)[C@H](O)[C@H](O)CO [D-fructose]
[1]
  Activity toward substrates of other known oxidases: failed to stimulate

## NCCCCN [putrescine]
[1]
  Activity toward substrates of other known oxidases: failed to stimulate
